Assay results taken from a compilation of properties of binary mixtures (doi:10.1016/j.molliq.2014.08.031).

Experiment: xn = mol fraction of the nth substance listed
Details: 101 kPa

CCCC[n+]1ccn(C)c1.CS(=O)(=O)[O-] + O
viscosity (313.15 K, x2 = 0.5596): 26.8 mPa·s | viscosity (313.15 K, x2 = 0.6542): 17.83 mPa·s | viscosity (313.15 K, x2 = 0.7015): 14.43 mPa·s | electrical conductivity (313.15 K, x2 = 0.704): 1.07 S/m | viscosity (313.15 K, x2 = 0.7495): 11.11 mPa·s | electrical conductivity (313.15 K, x2 = 0.785): 1.89 S/m | electrical conductivity (313.15 K, x2 = 0.796): 1.98 S/m | viscosity (313.15 K, x2 = 0.8016): 8.17 mPa·s | viscosity (313.15 K, x2 = 0.8521): 5.48 mPa·s | electrical conductivity (313.15 K, x2 = 0.861): 3.55 S/m | viscosity (313.15 K, x2 = 0.9254): 2.67 mPa·s | electrical conductivity (313.15 K, x2 = 0.929): 5.27 S/m | viscosity (313.15 K, x2 = 0.9503): 1.854 mPa·s | electrical conductivity (313.15 K, x2 = 0.951): 5.76 S/m | electrical conductivity (313.15 K, x2 = 0.968): 5.4 S/m | viscosity (313.15 K, x2 = 0.975): 1.148 mPa·s | electrical conductivity (314.15 K, x1 = 0.004): 1.61 S/m | electrical conductivity (314.15 K, x1 = 0.008): 2.86 S/m | electrical conductivity (314.15 K, x1 = 0.019): 4.58 S/m | electrical conductivity (314.15 K, x2 = 0.704): 1.1 S/m | electrical conductivity (314.15 K, x2 = 0.785): 1.96 S/m | electrical conductivity (314.15 K, x2 = 0.796): 2.04 S/m | electrical conductivity (314.15 K, x2 = 0.861): 3.71 S/m | electrical conductivity (314.15 K, x2 = 0.929): 5.42 S/m | electrical conductivity (314.15 K, x2 = 0.951): 5.97 S/m | electrical conductivity (314.15 K, x2 = 0.968): 5.53 S/m | electrical conductivity (315.15 K, x1 = 0.004): 1.64 S/m | electrical conductivity (315.15 K, x1 = 0.008): 2.91 S/m | electrical conductivity (315.15 K, x1 = 0.019): 4.65 S/m | electrical conductivity (315.15 K, x2 = 0.704): 1.14 S/m | electrical conductivity (315.15 K, x2 = 0.785): 2.02 S/m | electrical conductivity (315.15 K, x2 = 0.796): 2.11 S/m | electrical conductivity (315.15 K, x2 = 0.861): 3.75 S/m | electrical conductivity (315.15 K, x2 = 0.892): 4.58 S/m | electrical conductivity (315.15 K, x2 = 0.929): 5.54 S/m | electrical conductivity (315.15 K, x2 = 0.951): 6.11 S/m | electrical conductivity (316.15 K, x1 = 0.004): 1.67 S/m | electrical conductivity (316.15 K, x1 = 0.008): 2.97 S/m | electrical conductivity (316.15 K, x1 = 0.019): 4.73 S/m | electrical conductivity (316.15 K, x2 = 0.704): 1.18 S/m | electrical conductivity (316.15 K, x2 = 0.796): 2.17 S/m | electrical conductivity (316.15 K, x2 = 0.861): 3.84 S/m | electrical conductivity (316.15 K, x2 = 0.892): 4.75 S/m | electrical conductivity (316.15 K, x2 = 0.929): 5.63 S/m | electrical conductivity (316.15 K, x2 = 0.968): 5.71 S/m | electrical conductivity (317.15 K, x1 = 0.008): 3 S/m | electrical conductivity (317.15 K, x1 = 0.019): 4.82 S/m | electrical conductivity (317.15 K, x2 = 0.704): 1.22 S/m | electrical conductivity (317.15 K, x2 = 0.785): 2.1 S/m | electrical conductivity (317.15 K, x2 = 0.796): 2.22 S/m | electrical conductivity (317.15 K, x2 = 0.861): 3.94 S/m | electrical conductivity (317.15 K, x2 = 0.892): 4.86 S/m | electrical conductivity (317.15 K, x2 = 0.929): 5.78 S/m | electrical conductivity (318.15 K, x1 = 0.004): 1.72 S/m | electrical conductivity (318.15 K, x1 = 0.008): 3.06 S/m | electrical conductivity (318.15 K, x1 = 0.019): 4.92 S/m | electrical conductivity (318.15 K, x2 = 0.704): 1.27 S/m | electrical conductivity (318.15 K, x2 = 0.785): 2.15 S/m | electrical conductivity (318.15 K, x2 = 0.796): 2.29 S/m | electrical conductivity (318.15 K, x2 = 0.861): 4.05 S/m | electrical conductivity (318.15 K, x2 = 0.892): 4.99 S/m | electrical conductivity (318.15 K, x2 = 0.951): 6.37 S/m | electrical conductivity (318.15 K, x2 = 0.968): 5.94 S/m | electrical conductivity (319.15 K, x1 = 0.004): 1.76 S/m | electrical conductivity (319.15 K, x1 = 0.008): 3.11 S/m | electrical conductivity (319.15 K, x1 = 0.019): 5.07 S/m | electrical conductivity (319.15 K, x2 = 0.785): 2.21 S/m | electrical conductivity (319.15 K, x2 = 0.796): 2.35 S/m | electrical conductivity (319.15 K, x2 = 0.892): 5.12 S/m | electrical conductivity (319.15 K, x2 = 0.929): 6.06 S/m | electrical conductivity (319.15 K, x2 = 0.951): 6.73 S/m | electrical conductivity (320.15 K, x1 = 0.008): 3.17 S/m | electrical conductivity (320.15 K, x2 = 0.785): 2.28 S/m | electrical conductivity (320.15 K, x2 = 0.796): 2.4 S/m | electrical conductivity (320.15 K, x2 = 0.861): 4.25 S/m | electrical conductivity (320.15 K, x2 = 0.929): 6.2 S/m | electrical conductivity (320.15 K, x2 = 0.951): 6.7 S/m | electrical conductivity (321.15 K, x1 = 0.004): 1.82 S/m | electrical conductivity (321.15 K, x1 = 0.008): 3.21 S/m | electrical conductivity (321.15 K, x1 = 0.019): 5.2 S/m | electrical conductivity (321.15 K, x2 = 0.704): 1.39 S/m | electrical conductivity (321.15 K, x2 = 0.785): 2.36 S/m | electrical conductivity (321.15 K, x2 = 0.861): 4.38 S/m | electrical conductivity (321.15 K, x2 = 0.892): 5.35 S/m | electrical conductivity (321.15 K, x2 = 0.929): 6.32 S/m | electrical conductivity (321.15 K, x2 = 0.951): 6.78 S/m | electrical conductivity (322.15 K, x1 = 0.004): 1.85 S/m | electrical conductivity (322.15 K, x1 = 0.008): 3.28 S/m | electrical conductivity (322.15 K, x1 = 0.019): 5.28 S/m | electrical conductivity (322.15 K, x2 = 0.785): 2.44 S/m | electrical conductivity (322.15 K, x2 = 0.861): 4.47 S/m | electrical conductivity (322.15 K, x2 = 0.951): 6.94 S/m | electrical conductivity (322.15 K, x2 = 0.968): 6.41 S/m | electrical conductivity (323.15 K, x1 = 0.004): 1.88 S/m | electrical conductivity (323.15 K, x1 = 0.008): 3.33 S/m | electrical conductivity (323.15 K, x1 = 0.019): 5.4 S/m | viscosity (323.15 K, x2 = 0.5596): 19 mPa·s | viscosity (323.15 K, x2 = 0.6542): 12.84 mPa·s | viscosity (323.15 K, x2 = 0.7015): 10.57 mPa·s | electrical conductivity (323.15 K, x2 = 0.704): 1.49 S/m | viscosity (323.15 K, x2 = 0.7495): 8.22 mPa·s | electrical conductivity (323.15 K, x2 = 0.796): 2.62 S/m | viscosity (323.15 K, x2 = 0.8521): 4.18 mPa·s | electrical conductivity (323.15 K, x2 = 0.861): 4.6 S/m | electrical conductivity (323.15 K, x2 = 0.892): 5.62 S/m | viscosity (323.15 K, x2 = 0.9004): 2.87 mPa·s | viscosity (323.15 K, x2 = 0.9254): 2.13 mPa·s | electrical conductivity (323.15 K, x2 = 0.929): 6.51 S/m | electrical conductivity (323.15 K, x2 = 0.968): 6.56 S/m | viscosity (323.15 K, x2 = 0.975): 0.939 mPa·s | electrical conductivity (324.15 K, x2 = 0.704): 1.54 S/m | electrical conductivity (324.15 K, x2 = 0.785): 2.57 S/m | electrical conductivity (324.15 K, x2 = 0.796): 2.68 S/m | electrical conductivity (324.15 K, x2 = 0.861): 4.7 S/m | electrical conductivity (324.15 K, x2 = 0.929): 6.65 S/m | electrical conductivity (324.15 K, x2 = 0.951): 7.19 S/m | electrical conductivity (324.15 K, x2 = 0.968): 6.6 S/m | electrical conductivity (325.15 K, x1 = 0.004): 1.94 S/m | electrical conductivity (325.15 K, x2 = 0.785): 2.63 S/m | electrical conductivity (325.15 K, x2 = 0.861): 4.82 S/m | electrical conductivity (325.15 K, x2 = 0.892): 5.85 S/m | electrical conductivity (325.15 K, x2 = 0.951): 7.31 S/m | electrical conductivity (325.15 K, x2 = 0.968): 6.74 S/m | electrical conductivity (326.15 K, x1 = 0.008): 3.43 S/m | electrical conductivity (326.15 K, x1 = 0.019): 5.63 S/m | electrical conductivity (326.15 K, x2 = 0.704): 1.63 S/m | electrical conductivity (326.15 K, x2 = 0.785): 2.7 S/m | electrical conductivity (326.15 K, x2 = 0.796): 2.83 S/m | electrical conductivity (326.15 K, x2 = 0.861): 4.9 S/m | electrical conductivity (326.15 K, x2 = 0.892): 5.98 S/m | electrical conductivity (327.15 K, x1 = 0.004): 1.99 S/m | electrical conductivity (327.15 K, x1 = 0.008): 3.54 S/m | electrical conductivity (327.15 K, x1 = 0.019): 5.55 S/m | electrical conductivity (327.15 K, x2 = 0.785): 2.75 S/m | electrical conductivity (327.15 K, x2 = 0.796): 2.9 S/m | electrical conductivity (327.15 K, x2 = 0.892): 6.11 S/m | electrical conductivity (327.15 K, x2 = 0.968): 6.87 S/m | electrical conductivity (328.15 K, x1 = 0.004): 2.01 S/m | electrical conductivity (328.15 K, x1 = 0.008): 3.6 S/m | electrical conductivity (328.15 K, x2 = 0.704): 1.74 S/m | electrical conductivity (328.15 K, x2 = 0.785): 2.83 S/m
